The text below walks through data of patent US6723751B1, “Crystalline forms of the sodium salt of 5-chloro-2-methoxy-N-(2-(4-methoxy-3-methylaminothiocarbonylaminosulfonylpenyl)ethyl)benzamide” (Aventis Pharma Deutschland GmbH, priority 1999, dated 2004).

A short description of series [1]: Solubility investigations in water. In kind it is physicochemical. The following applies: for Total amount of substance that could be dissolved: in 2 ml of water at 20° C. to 25° C.; for Time to go into solution: portions of 50 to 100 mg stirred into 2.0 ml of water at room temperature. As for the experimental part: The substance was introduced with stirring into 2.0 ml of water at room temperature in portions of 50 to 100 mg. It went into solution in the course of a few minutes with initial clumping. In this way, a total of up to 500 mg of substance could be dissolved in 2 ml of water at 20° C to 25° C.
100 mg of the substance were introduced into 2.0 ml of water, a readily stirrable suspension being formed. […] On warming the suspension to 35° C. to 37° C., the substance went into solution within 20 minutes.
The substance was introduced with stirring into 2.0 ml of water at room temperature in portions of 50 to 100 mg. After introduction, the substance was initially present as a granular, readily stirrable solid that then went into solution in the course of a few minutes. In this way, a total of up to 360 mg of substance could be dissolved in 2 ml of water at 20° C. to 25° C.
The substance was introduced with stirring into 2.0 ml of water at room temperature in portions of 50 to 100 mg. It went into solution in the course of a few minutes with initial clumping. In this way, a total of up to 620 mg of substance could be dissolved in 2 ml of water at 20° C. to 25° C.

Series [2] is described as follows: Hygroscopicity investigations: water vapor sorption (DVS-1 Dynamic Vapour Sorption Analyser). It counts as physicochemical. The note with it: 25° C., equilibrium. As for the experimental part: The water vapor sorption of the crystal modifications according to the invention was investigated at a temperature of 25° C. on substance samples of about 12 to 16 mg using a DVS-1 Dynamic Vapour Sorption Analyser from Surface Measurement Systems. The measurements were carried out in a nitrogen atmosphere whose relative humidity was altered stepwise. The weight of the sample was recorded at each relative humidity after establishment of the equilibrium, which is when a change in weight of the sample no longer took place. For a series of increasing relative humidities, the water contents of the substance samples, which were determined from the change in weight compared with the starting weights, are indicated in percent.

As to `CNC(=S)[N-]S(=O)(=O)c1cc(CCNC(=O)c2cc(Cl)ccc2OC)ccc1OC.[Na+]` [Crystal Modification 2, sodium salt of 5-chloro-2-methoxy-N-(2-(4-methoxy-3-methylaminothiocarbonylaminosulfonylphenyl)ethyl)benzamide], the “State of solution on cooling” value in series [1] (100 mg in 2.0 ml of water, cooled from 35° C. to 37° C. to 20° C. to 25° C.) is “remained clearly dissolved”. Further, the “Time to go into solution on warming” value in series [1] (100 mg in 2.0 ml of water, suspension warmed to 35° C. to 37° C.) is no more than 20 min. For the same compound, in series [1] (after stirring at 20° C. to 25° C. for 2 h), the “Dissolution of 100 mg in 2.0 ml of water” value is on record as “a clear solution was still not formed”. Further, the Water content in series [2] (relative humidity 18.5 %) is reported as 0.04%; in series [2] (relative humidity 39.9 %), 0.06%; in series [2] (relative humidity 61.5 %), 0.08%; in series [2] (relative humidity 81.9 %) it was 0.10%; in series [2] (relative humidity 91.7 %), 0.13%.

Consider `CNC(=S)[N-]S(=O)(=O)c1cc(CCNC(=O)c2cc(Cl)ccc2OC)ccc1OC.[Na+]` [Crystal Modification 3, sodium salt of 5-chloro-2-methoxy-N-(2-(4-methoxy-3-methylaminothiocarbonylaminosulfonylphenyl)ethyl)benzamide], for which, in series [1], the “Total amount of substance that could be dissolved” value (“Total amount” below) is given as “up to 360 mg”. Moreover, the “Time to go into solution” value in series [1] is “a few minutes”. Besides, the Water content in series [2] (relative humidity 18.7 %) is given as 0.06%; in series [2] (relative humidity 40.1 %) it was 0.21%; in series [2] (relative humidity 61.4 %), 0.38%; in series [2] (relative humidity 81.3 %), 0.65%; in series [2] (relative humidity 91.0 %), 0.79%.

As for `CNC(=S)[N-]S(=O)(=O)c1cc(CCNC(=O)c2cc(Cl)ccc2OC)ccc1OC.[Na+]` [Crystal Modification 4, sodium salt of 5-chloro-2-methoxy-N-(2-(4-methoxy-3-methylaminothiocarbonylaminosulfonylphenyl)ethyl)benzamide], in series [1], the “Total amount” value is “up to 620 mg” and the “Time to go into solution” value is recorded as “a few minutes”.

Consider `CNC(=S)[N-]S(=O)(=O)c1cc(CCNC(=O)c2cc(Cl)ccc2OC)ccc1OC.[Na+]` [Crystal Modification 1, sodium salt of 5-chloro-2-methoxy-N-(2-(4-methoxy-3-methylaminothiocarbonylaminosulfonylphenyl)ethyl)benzamide], for which the “Total amount” value in series [1] is listed as “up to 500 mg”. Further, the “Time to go into solution” value in series [1] was “a few minutes”. Besides, the Water content in series [2] (relative humidity 18.4 %) was 0.30%; in series [2] (relative humidity 39.6 %), 0.65%; in series [2] (relative humidity 61.0 %), 1.39%; in series [2] (relative humidity 81.1 %), 2.04%; in series [2] (relative humidity 91.0 %), 5.72%.
